Test results as given in ChEMBL document CHEMBL3758092, “Discovery and preclinical evaluation of potent, orally bioavailable, metabolically stable cyclopropylindolobenzazepine acylsulfonamides as thumb site 1 inhibitors of the hepatitis c virus NS5B RNA-dependent, RNA polymerase” (Bioorg Med Chem Lett, 2016).

What was measured:
[1] = Oral bioavailability in dog at 3 mg/kg; assay type: ADME, organism-based, Canis lupus familiaris; conditions: in vivo
[2] = Ratio of drug level in liver to plasma in rat at 10 mg/kg, po after 6 hrs; assay type: ADME, organism-based
[3] = Solubility in mid-range pH solutions; assay type: physicochemical
Hepatitis C virus [4] = test: Antiviral activity against HCV1b by replicon assay in presence of 40% human serum; assay type: functional, organism-based, Hepacivirus hominis; conditions: genotype 1b
[5] = AUC (0 to 24 hrs) in cynomolgus monkey at 1 mg/kg, iv; assay type: ADME, organism-based, Macaca fascicularis; parameters: time < 24 hr, dose 1 mg/kg, route intravenous; conditions: in vivo
[6] = AUC (0 to 24 hrs) in rat at 5 mg/kg, iv; assay type: ADME, organism-based; parameters: dose 5 mg/kg, time < 24 hr, route intravenous; conditions: in vivo
Hepatitis C virus [7] = test: Antiviral activity against HCV1a by replicon assay; assay type: functional, organism-based, Hepacivirus hominis; conditions: subtype 1a
[8] = Ratio of drug level in liver to plasma in rat at 10 mg/kg, po after 48 hrs; assay type: ADME, organism-based
[9] = AUC (0 to 24 hrs) in rat at 10 mg/kg, po; assay type: ADME, organism-based; parameters: time < 24 hr, dose 10 mg/kg, route oral; conditions: in vivo
[10] = AUC (0 to 24 hrs) in cynomolgus monkey at 3 mg/kg, po; assay type: ADME, organism-based, Macaca fascicularis; parameters: dose 3 mg/kg, time < 24 hr, route oral; conditions: in vivo
[11] = AUC (0 to 24 hrs) in dog at 1 mg/kg, iv; assay type: ADME, organism-based, Canis lupus familiaris; parameters: dose 1 mg/kg, time < 24 hr, route intravenous; conditions: in vivo
[12] = Oral bioavailability in rat at 10 mg/kg; assay type: ADME, organism-based; conditions: in vivo
[13] = AUC (0 to 24 hrs) in dog at 3 mg/kg, po; assay type: ADME, organism-based, Canis lupus familiaris; parameters: time < 24 hr, dose 3 mg/kg, route oral; conditions: in vivo
[14] = Oral bioavailability in cynomolgus monkey at 3 mg/kg; assay type: ADME, organism-based, Macaca fascicularis; conditions: in vivo
Hepatitis C virus [15] = test: Antiviral activity against HCV1b by replicon assay; assay type: functional, organism-based, Hepacivirus hominis; conditions: genotype 1b
[16] = (§1) Drug uptake in rat at 10 mg/kg, po liver after 48 hrs; assay type: ADME, organism-based; conditions: liver, read-out: Drug uptake
in vitro = conditions: rat, liver microsomes
Description: Metabolic stability in rat liver microsomes assessed as compound remaining after 10 mins

[17] = Half life in human liver microsomes; assay type: ADME
[18] = Clearance in rat at 10 mg/kg, po; assay type: ADME, organism-based; conditions: in vivo
[19] = Half life in cynomolgus monkey liver microsomes; assay type: ADME, Macaca fascicularis
[20] = molecular target: Voltage-gated inwardly rectifying potassium channel KCNH2 (Homo sapiens, UniProt Q12809); test: Inhibition of human ERG by FLIPR assay
Voltage-gated inwardly rectifying potassium channel KCNH2, sequence (Q12809 whole entry): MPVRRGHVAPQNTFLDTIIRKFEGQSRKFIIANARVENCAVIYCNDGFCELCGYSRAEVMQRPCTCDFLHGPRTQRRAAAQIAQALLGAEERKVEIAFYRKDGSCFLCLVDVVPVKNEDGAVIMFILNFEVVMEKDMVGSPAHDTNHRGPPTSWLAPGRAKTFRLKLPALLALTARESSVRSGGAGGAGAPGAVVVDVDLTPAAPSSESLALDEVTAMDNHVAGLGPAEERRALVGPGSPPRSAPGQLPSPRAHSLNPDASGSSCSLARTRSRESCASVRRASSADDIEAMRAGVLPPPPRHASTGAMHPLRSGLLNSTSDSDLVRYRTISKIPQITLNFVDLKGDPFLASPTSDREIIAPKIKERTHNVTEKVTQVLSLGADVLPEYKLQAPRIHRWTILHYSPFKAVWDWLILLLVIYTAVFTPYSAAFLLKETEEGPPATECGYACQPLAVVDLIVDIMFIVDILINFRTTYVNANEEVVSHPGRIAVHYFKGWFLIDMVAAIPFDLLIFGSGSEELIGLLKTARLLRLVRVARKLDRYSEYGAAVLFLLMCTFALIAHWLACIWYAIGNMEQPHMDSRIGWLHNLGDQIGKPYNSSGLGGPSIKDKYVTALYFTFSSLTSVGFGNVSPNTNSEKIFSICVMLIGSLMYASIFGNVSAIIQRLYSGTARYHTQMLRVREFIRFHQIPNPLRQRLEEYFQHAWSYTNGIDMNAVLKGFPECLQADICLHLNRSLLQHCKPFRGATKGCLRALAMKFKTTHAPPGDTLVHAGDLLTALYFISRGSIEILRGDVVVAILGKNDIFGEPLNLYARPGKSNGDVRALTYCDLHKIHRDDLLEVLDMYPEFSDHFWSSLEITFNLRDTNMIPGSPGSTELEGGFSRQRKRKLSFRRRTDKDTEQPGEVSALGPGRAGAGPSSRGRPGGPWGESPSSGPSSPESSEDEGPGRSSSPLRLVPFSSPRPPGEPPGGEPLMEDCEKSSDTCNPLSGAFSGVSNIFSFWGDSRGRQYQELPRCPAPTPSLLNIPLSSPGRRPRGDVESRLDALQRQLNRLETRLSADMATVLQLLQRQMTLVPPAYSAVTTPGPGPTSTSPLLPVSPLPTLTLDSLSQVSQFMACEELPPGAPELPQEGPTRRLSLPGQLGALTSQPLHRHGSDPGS

[21] = Drug uptake in rat at 10 mg/kg, po liver after 4 hrs; assay type: ADME, organism-based; conditions: read-out: Drug uptake
[22] = Permeability of the compound at pH 7.4 by PAMPA; assay type: ADME; conditions: read-out: permeability
[23] = Drug uptake in rat at 10 mg/kg, po liver after 6 hrs; assay type: ADME, organism-based; conditions: read-out: Drug uptake
Liver [24] = test: as §1; assay type: ADME, organism-based; conditions: in vivo, 48 h, BLD = below limit of detection
[25] = Plasma concentration in rat at 10 mg/kg, po after 6 hrs; assay type: ADME, organism-based
Liver [26] = test: Drug uptake in rat at 10 mg/kg, po liver after 24 hrs; assay type: ADME, organism-based; conditions: in vivo, BLD = below limit of detection
[27] = Ratio of drug level in liver to plasma in rat at 10 mg/kg, po after 24 hrs; assay type: ADME, organism-based
[28] = Ratio of drug level in liver to plasma in rat at 10 mg/kg, po after 4 hrs; assay type: ADME, organism-based

Row | Compound | Kp at 6 h [2] | EC50 (Hepatitis C virus [7]) [nM] | bioavailability [12] [%] | EC50 (Hepatitis C virus [15]) [nM] | half-life [17] [min] | CL/F [18] [mL/min/kg] | half-life [19] [min] | concentration at 6 h [23] [µM] | also measured
1 | COc1ccc2c(c1)[C@@H]1C[C@]1(C(=O)N1C3CCC1CN(C)C3)Cn1c-2c(C2CCCCC2)c2ccc(C(=O)NS(=O)(=O)C(C)C)cc21 | 20 | 7 | 65 | – | – | – | – | – | bioavailability [1]: 100%; solubility [3]: soluble; EC50 (Hepatitis C virus [4]): 20 nM; AUC(0-t) at 24 h [5]: 7 µM·h; AUC(0-t) at 24 h [6]: 18 µM·h; Kp at 48 h [8]: 11; AUC(0-t) at 24 h [9]: 16 µM·h; AUC(0-t) at 24 h [10]: 5.4 µM·h; AUC(0-t) at 24 h [11]: 36 µM·h; AUC(0-t) at 24 h [13]: 124 µM·h; bioavailability [14]: 25%
2 | COc1ccc2c(c1)[C@H]1C[C@@]1(C(=O)N1C3CCC1CN(C)C3)Cn1c-2c(C2CCCCC2)c2ccc(C(=O)NS(=O)(=O)C(C)C)cc21 | – | 196 | – | 148 | – | – | – | – | –
3 | COc1ccc2c(c1)[C@@H]1C[C@]1(C(=O)N1C3CCC1CN(C)C3)Cn1c-2c(C2CCCCC2)c2ccc(C(=O)NS(=O)(=O)C3CCC3)cc21 | – | – | 28 | 5 | 70.5 | 13.4 | 65.5 | – | concentration at 48 h [16]: 0.07 µM; remaining at 10 min (in vitro): 87.8%; EC50 (Hepatitis C virus [4]): 70 nM
4 | COc1ccc2c(c1)[C@@H]1C[C@]1(C(=O)N1C3CCC1CN(C)C3)Cn1c-2c(C2CCCCC2)c2ccc(C(=O)NS(=O)(=O)CC(C)C)cc21 | 47 | – | 41 | 2 | > 72 | – | 24.4 | – | remaining at 10 min (in vitro): 100%; EC50 (Hepatitis C virus [4]): 80 nM; IC50 [20]: 16600 nM; Kp at 48 h [8]: 4
5 | COc1ccc2c(c1)C1CC1(C(=O)N1C3CCC1CN(C)C3)Cn1c-2c(C2CCCCC2)c2ccc(C(=O)NS(=O)(=O)N(C)C)cc21 (racemic) | – | – | – | 12 | 76 | – | – | – | remaining at 10 min (in vitro): 100%; concentration at 4 h [21]: 69 µM; Papp [22]: 71.3 ×10⁻⁶ cm/s
6 | COc1ccc2c(c1)C1CC1(C(=O)N1C3CCC1CN(C)C3)Cn1c-2c(C2CCCCC2)c2ccc(C(=O)NS(=O)(=O)C3CCCC3)cc21 (racemic) | 36 | 24 | – | 62 | > 60 | 7.7 | 18.2 | 35.3 | –
7 | COc1ccc2c(c1)C1CC1(C(=O)N1C3CCC1CN(C)C3)Cn1c-2c(C2CCCCC2)c2ccc(C(=O)NS(=O)(=O)CC(C)C)cc21 (racemic) | 150 | 14 | – | 22 | > 60 | 9.2 | 24.5 | 88.3 | –
8 | COc1ccc2c(c1)C1CC1(C(=O)N1C3CCC1CN(C)C3)Cn1c-2c(C2CCCCC2)c2ccc(C(=O)NS(=O)(=O)CC3CC3)cc21 (racemic) | – | 5 | 13.7 | 22 | 200 | 19.6 | 39 | – | concentration at 48 h [16]: 0.15 µM
9 | COc1ccc2c(c1)C1CC1(C(=O)N1C3CCC1CN(C)C3)Cn1c-2c(C2CCCCC2)c2ccc(C(=O)NS(=O)(=O)C3CCC3)cc21 (racemic) | 67 | 23 | – | 40 | > 60 | 5.2 | 46.5 | 38.8 | –
10 | COc1ccc2c(c1)C1CC1(C(=O)N1C3CCC1CN(C)C3)Cn1c-2c(C2CCCCC2)c2ccc(C(=O)NS(=O)(=O)CC3CCC3)cc21 (racemic) | – | 15 | 19.1 | 56 | 45 | 13.3 | 9 | – | Drug uptake (Liver [24]): BLD
11 | CCN(C)S(=O)(=O)NC(=O)c1ccc2c(C3CCCCC3)c3n(c2c1)CC1(C(=O)N2C4CCC2CN(C)C4)CC1c1cc(OC)ccc1-3 (racemic) | – | 14 | – | 13 | 27.3 | – | – | 36.4 | remaining at 10 min (in vitro): 94%; concentration at 6 h [25]: 0.178 µM; Papp [22]: 56.1 ×10⁻⁶ cm/s
12 | COc1ccc2c(c1)C1CC1(C(=O)N1C3CCC1CN(C)C3)Cn1c-2c(C2CCCCC2)c2ccc(C(=O)NS(=O)(=O)C(C)C)cc21 (racemic) | 13 | 20 | 65 | 28 | – | – | – | 26.2 | –
13 | COc1ccc2c(c1)C1CC1(C(=O)N1C3CCC1CN(C)C3)Cn1c-2c(C2CCCCC2)c2ccc(C(=O)NS(=O)(=O)C(C)(C)C)cc21 (racemic) | – | 8 | 12.4 | 23 | > 60 | 13.5 | 44 | – | Drug uptake (Liver [26]): BLD
14 | CCS(=O)(=O)NC(=O)c1ccc2c(C3CCCCC3)c3n(c2c1)CC1(C(=O)N2C4CCC2CN(C)C4)CC1c1cc(OC)ccc1-3 (racemic) | 108 | 17 | – | 23 | 206 | 40 | 72 | 7.9 | –
15 | CCCCS(=O)(=O)NC(=O)c1ccc2c(C3CCCCC3)c3n(c2c1)CC1(C(=O)N2C4CCC2CN(C)C4)CC1c1cc(OC)ccc1-3 (racemic) | – | 15 | – | 45 | 73 | – | 19 | – | –
16 | COc1ccc2c(c1)C1CC1(C(=O)N1C3CCC1CN(C)C3)Cn1c-2c(C2CCCCC2)c2ccc(C(=O)NS(=O)(=O)N3CCC3)cc21 (racemic) | – | 12 | – | 24 | 135 | – | 55 | 0.8 | remaining at 10 min (in vitro): 100%; concentration at 6 h [25]: 0.02 µM; Papp [22]: 66.5 ×10⁻⁶ cm/s
17 | COc1ccc2c(c1)C1CC1(C(=O)N1C3CCC1CN(C)C3)Cn1c-2c(C2CCCCC2)c2ccc(C(=O)NS(C)(=O)=O)cc21 (racemic) | – | 13 | 3.6 | 18 | 179 | 54.4 | 80 | – | Drug uptake (Liver [26]): BLD
18 | COc1ccc2c(c1)C1CC1(C(=O)N1C3CCC1CN(C)C3)Cn1c-2c(C2CCCCC2)c2ccc(C(=O)NS(=O)(=O)C3CC3)cc21 (racemic) | 66 | 7 | 4.9 | 15 | 179 | 26.9 | 130 | – | concentration at 4 h [21]: 6.4 µM
19 | CCCS(=O)(=O)NC(=O)c1ccc2c(C3CCCCC3)c3n(c2c1)CC1(C(=O)N2C4CCC2CN(C)C4)CC1c1cc(OC)ccc1-3 (racemic) | 120 | 8 | – | 21 | 112 | 16.5 | 37 | 13.1 | –
20 | CCC(C)S(=O)(=O)NC(=O)c1ccc2c(C3CCCCC3)c3n(c2c1)CC1(C(=O)N2C4CCC2CN(C)C4)CC1c1cc(OC)ccc1-3 (racemic) | – | 15 | – | 37 | 18 | – | 38 | – | –
21 | COc1ccc2c(c1)C1CC1(C(=O)N1C3CCC1CN(C)C3)Cn1c-2c(C2CCCCC2)c2ccc(C(=O)NS(=O)(=O)CC(C)(C)C)cc21 (racemic) | 14.5 | 23 | – | 41 | 48 | 4.1 | 8.4 | 65.3 | –
22 | COc1ccc2c(c1)[C@@H]1C[C@]1(C(=O)N1[C@@H]3CC[C@H]1CN(C)C3)Cn1c-2c(C2CCCCC2)c2ccc(C(=O)NS(=O)(=O)N(C)C)cc21 [BECLABUVIR] | 10 | – | 43 | – | 45 | – | – | – | remaining at 10 min (in vitro): 100%; EC50 (Hepatitis C virus [4]): 40 nM; Kp at 24 h [27]: 10; IC50 [20]: 26000 nM; Kp at 4 h [28]: 2
